Assay results: US6403554B2, “Polyunsaturated fatty acid derivatives and their use” (Ardenia Investments Ltd., priority 1998, dated 2002)

What was measured:
[1] = tested on: antibody-forming cells (AFC) in the spleen; assay: Influence of human AFP/compound complex and compound alone on humoral immune response, C57B1/6 male mice; type: in vivo; details: compound alone, 5th day
Procedure: The influence of complexes of AFP with one of the title compounds 1-4, 1a-4a, 5-20 as well as their basic components on humoral immune response was estimated by counting the quantity of antibody-forming cells (AFC) in the mice spleen.
0.15 ml of AFP/Compound 3 complex was administered intravenously to 6 mice males of C57B1/6 line (weight 18-22 g) in the dose of […] of AFP and 45.5 μg of compound 3 per capita. Simultaneously suspension of 5·10^7 sheep erythrocytes was injected intraperitoneally (0.2 ml per capita). In the group with compound 3 mice were injected intravenously by one in the dose of 45.5 μg. Animals of group with AFP received 9 μg of AFP. Mice of control group were injected intravenously with equal volume of saline. Complex AFP/Compound 3 effect on humoral immune response was analyzed by counting the quantity of AFC in the spleen according to Cunningham (per 10^6 spleen cells and per spleen).
0.15 ml of AFP/Compound 2a complex (1:100) was administered intravenously to 6 mice males of C57B1/6 line (weight 18-22 g) in the dose of 9 μg of AFP and 45.5 μg of compound 2a per capita. Simultaneously, a suspension of 5·10^7 sheep erythrocytes was injected intraperitoneally (0.2 ml per capita). In the group with compound 2a mice were injected intravenously by one in the dose of 45.5 μg. Animals of group with AFP received 9 μg of AFP. Mice in the control group were injected intravenously with an equal volume of saline. The effect of the AFP/Compound 2a complex on humoral immune response was analyzed by counting the quantity of AFC in the spleen according to Cunningham (per 10^6 spleen cells and per spleen).
(§1) 0.15 ml of AFP/Compound 10 complex (1:200) was administered intravenously to 6 male mice of C57B1/6 line (weight 18-22 g) in the dose of 9 μg of AFP and 91 μg of compound 10 per capita. Simultaneously, a suspension of 5·10^7 sheep erythrocytes was injected intraperitoneally (0.2 ml per capita). In the group receiving compound 10 mice were injected intravenously by one in the dose of 91 μg. Animals in the group with AFP received 9 μg of AFP. Micein the control group were injected intravenously with an equal volume of saline. The effect of the AFP/Compound 10 complex on humoral immune response was analyzed by counting the quantity of AFC in the spleen according to Cunningham (per 10^6 spleen cells and per spleen).
as §1, with “AFP/Compound 14” for “AFP/Compound 10”, “compound 14” for “compound 10”, “group with” for “group receiving”, “Animals of” for “Animals in the”, “AFP. Mice in” for “AFP. Micein”

[2] = tested on: antibody-forming cells (AFC) in the spleen; assay: Influence of compound on humoral immune response to sheep erythrocytes, C57B1/6 female mice (AFC in spleen, hemagglutinins); type: in vivo; details: for Amount of antibody-forming cells per 10^6 spleen cells / Amount of antibody-forming cells per spleen / Effect on relative amount of AFC (per 10^6 spleen cells) / Effect on total AFC amount (per spleen): 5th day; for Amount of antibody-forming cells per 10^6 spleen cells / Amount of antibody-forming cells per spleen: M ± SEM; for Effect on relative amount of AFC (per 10^6 spleen cells) / Effect on total AFC amount (per spleen) / Effect on hemagglutinin titers: vs control; for Spleen index: with SRBC i.p.

SMILES | Amount of antibody-forming cells per 10^6 spleen cells ([2]; 45.5 μg/mouse, i.v.) | Amount of antibody-forming cells per spleen ([2]; 45.5 μg/mouse, i.v.) | Effect on relative amount of AFC (per 10^6 spleen cells) ([2]; 45.5 μg/mouse, i.v.) | Effect on total AFC amount (per spleen) ([2]; 45.5 μg/mouse, i.v.) | Effect on hemagglutinin titers ([2]; 45.5 μg/mouse, i.v.) | Spleen index ([2]; 45.5 μg/mouse, i.v.) | Amount of antibody-forming cells per 10^6 spleen cells ([2]; 91 μg/mouse, i.v.) | Amount of antibody-forming cells per spleen ([2]; 91 μg/mouse, i.v.) | Effect on hemagglutinin titers ([2]; 91 μg/mouse, i.v.) | Spleen index ([2]; 91 μg/mouse, i.v.) | Amount of antibody-forming cells per 10^6 spleen cells ([2]; 136.5 μg/mouse, i.v.) | Amount of antibody-forming cells per spleen ([2]; 136.5 μg/mouse, i.v.) | Effect on hemagglutinin titers ([2]; 136.5 μg/mouse, i.v.) | Spleen index ([2]; 136.5 μg/mouse, i.v.) | relative amount of AFC ([1]; 91 μg/mouse i.v.) | total AFC amount ([1]; 91 μg/mouse i.v.) | Effect on relative amount of AFC (per 10^6 spleen cells) ([2]; 91 μg/mouse, i.v.) | Effect on total AFC amount (per spleen) ([2]; 91 μg/mouse, i.v.) | Immunogenic activity ([2]; 45.5 and 91 μg/mouse) | further results
CC1=C(/C=C/C(C)=C/C=C/C(C)=C\C(=O)N[C@@H](COP(=O)(O)O)C(=O)O)C(C)(C)CCC1 (stereo in doubt) [Compound 2a, N-(13-cis-Retinoyl)-O-phospho-L-serine] | 264.5±19.9 cells per 10^6 spleen cells | 34.0±2.6 × 10^3 | −12.8 p > 0.05% | −15.0 p > 0.05% | −7.7 p > 0.05% | 6.4 ± 0.2 10^−3 | 585.6±51.6 cells per 10^6 spleen cells | 59.4±5.2 × 10^3 | −3.8 p > 0.05% | 6.5 ± 0.2 10^−3 | 639.8±54.6 cells per 10^6 spleen cells | 68.3±6.1 × 10^3 | +5.1 p > 0.05% | 7.4 ± 0.4 10^−3 | – | – | – | – | – | relative amount of AFC ([1]; 45.5 μg/mouse i.v.): 264.5±19.9 cells per 10^6 spleen cells; total AFC amount ([1]; 45.5 μg/mouse i.v.): 34.0±2.6 × 10^3; Immunogenic activity ([2]; 45.5 μg/mouse): no immunogenic activity; immunostimulating effect in vivo in micelle form ([2]; 91 μg/mouse): display immunostimulating effect in vivo; immunostimulating action ([2]; 91 and 136.5 μg/mouse): marked immunostimulating action
CC/C=C\C/C=C\C/C=C\C/C=C\C/C=C\C/C=C\CCC(=O)N[C@@H](COP(=O)(O)O)C(=O)O [Compound 10, N-(cis-4,7,10,13,16,19-docosahexaenoyl)-O-phospho-L-serine] | 304.9±46.6 cells per 10^6 spleen cells | 30.2±5.7 × 10^3 | +11.6 p > 0.05% | −3.5 p > 0.05% | +11.4 p > 005% | 6.9 ± 0.2 10^−3 | 326.2±65.4 cells per 10^6 spleen cells | 34.7±8.5 × 10^3 | +11.4 p > 005% | 6.6 ± 0.4 10^−3 | 651.6±48.2 cells per 10^6 spleen cells | 81.1±5.8 × 10^3 | – | 6.7 ± 0.2 10^−3 | 326.2±65.4 cells per 10^6 spleen cells | 34.7±8.5 × 10^3 | +19.4 p > 0.05% | +10.9 p > 0.05% | no immunogenic activity | Amount of hemagglutinins ([2]; 136.5 μg/mouse, i.v., serum): 8.5±0.4 Log2 T
CC/C=C\C/C=C\C/C=C\C/C=C\C/C=C\CCCC(=O)N[C@@H](COP(=O)(O)O)C(=O)O [Compound 14, N-(cis-5,8,11,14,17-eicosapentaenoyl)-O-phospho-L-serine] | 554.6±52.0 cells per 10^6 spleen cells | 70.8±10.8 × 10^3 | −10.9 p > 0.05% | −1.5 p > 0.05% | −9,7 p > 0.05% | 6.5 ± 0.2 10^−3 | 645.8±64.4 cells per 10^6 spleen cells | 80.8±12.7 × 10^3 | −2,8 p > 0.05% | 6.2 ± 0.2 10^−3 | 946.1±41.9 cells per 10^6 spleen cells | 108.6±10.8 × 10^3 | 0% | 6.5 ± 0.3 10^−3 | 645.8±64.4 cells per 10^6 spleen cells | 80.8±12.7 × 10^3 | +3.8 p > 0.05% | +12.4 p > 0.05% | no immunogenic activity | immunostimulating action ([2]; 136.5 μg/mouse): marked immunostimulating action
